One compound from patent publication EP4389749A1, “SUBSTITUTED 3,7-DIHYDRO-1H-PURINE-2,6-DIONES AND USE THEREOF” (invIOs GmbH, priority 2022, dated 2024) can be followed below.

The structures appear in SMILES notation.

One test concerns CD4+ T-cells. Description: Immunostimulation assay with anti-CD3/28 stimulated T-cells, CD69 expression by flow cytometry. The class given is cell-based, human. As to conditions: T-cell; purified human CD4+ and CD8+ T-cells, 1 µg/ml anti-CD3, 1 µg/ml anti-CD28, 16 hours, surface FACS; read-out: EC50 CD4+. In short, it runs like this: (§1)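 Human CD4+/CD8+ T-cells purified from buffy-coat PBMCs were stimulated with 1 µg/ml anti-CD3 and 1 µg/ml anti-CD28 plus compound (0.001–30 µM) for 16 h at 37 °C. CD69 measured by flow cytometry; DMSO set minimal, CD3/28 Dynabeads maximal activation; EC50 by variable-slope fit.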

A further test relates to CD8+ T-cells. Described as above. It counts as cell-based, human. As to conditions: T-cell; purified human CD4+ and CD8+ T-cells, 1 µg/ml anti-CD3, 1 µg/ml anti-CD28, 16 hours, surface FACS; read-out: EC50 CD8+. In short, it runs like this:
as §1

The test system of another test is B16-SIY melanoma. The test is described as follows: Efficacy on B16-SIY melanoma, in vivo tumor growth. The following applies: p.o., over the course of 21 days, C57BL/6 mice, B16-SIY intradermal. As to the method:
Eight-weeks-old C57BL/6 mice were purchased from Charles River. All animal experiments were in accordance with institutional guidelines of the Research Institute of Molecular Pathology (Austria) and approved according to the European Community rules of animal care with the permission of the Austrian Ministry of Science.
B16-SIY melanoma cells were cultured in DMEM containing 10 % FCS, 1 % PenStrep and 1 % glutamine and grown in a humidified incubator at 37 °C and 5 % CO2. For tumor inoculations sub-confluent B16-SIYcells were trypsinized, washed, counted and resuspended in PBS to a final concentration of 1×10^7 B16-SIY cells/ml.
30 C57BL/6 mice were inoculated intradermally with 1×10^6 B16-SIY cells and tumor bearing mice randomly assigned to 3 different groups […] post transplantation: Compound 142 30 mg/kg 3 days post B16-SIY inoculation and subsequent daily administration of 10 mg/kg (10 mice), Compound 142 9 mg/kg 3 days post B16-SIY inoculation and subsequent daily treatment of 3 mg/kg (10 mice), or vehicle control (10 mice). Compound 142 was diluted in 10 % DMSO, 20 % PEG400, 21 % HPbCD, 0.35 % HPMC and 48.65 % H2O and mice treated p.o. with 2 different treatment schedules: d3: 30 mg/kg + QD: 10 mg/kg or d3: 9 mg/kg + QD: 3 mg/kg (Figure 1). […] Tumors were measured daily and mice sacrificed 21 days post B16-SIY inoculation (Figure 1). […]

As for `CC(O)Cn1c(=O)[nH]c(=O)c2c1nc(-c1ccc(Oc3ccc(OC(F)(F)F)cc3)cc1)n2C` (stereo not shown) [Compound 142, 3-(2-hydroxypropyl)-7-methyl-8-(4-(4-(trifluoromethoxy)phenoxy)phenyl)-3,7-dihydro-1H-purine-2,6-dione], the EC50 with CD4+ T-cells and in the test with CD8+ T-cells was 500 to 1000 nM each time. Also, the “Tumor volumes compared to vehicle control” value in the test with B16-SIY melanoma (d3: 9 mg/kg + QD: 3 mg/kg) and in the test with B16-SIY melanoma (d3: 30 mg/kg + QD: 10 mg/kg) was “significantly reduced” each time.
